Assay results: ChEMBL document CHEMBL3885881, “DrugMatrix”

Species on record: Rattus norvegicus
Experiment: DrugMatrix - Regimen: Daily Repeat
Assay type: toxicity, organism-based, Sprague-Dawley
Parameters: regimen Daily Repeat, gender Male, age 6-8 weeks
Conditions: in vivo, po, route oral GAVAGE, vehicle .5 % CMC; for ABSOLUTE BASOPHIL / ABSOLUTE EOSINOPHIL / ABSOLUTE LYMPHOCYTE / ABSOLUTE MONOCYTE / ABSOLUTE SEGMENTED NEUTROPHIL / BASOPHIL / EOSINOPHIL / ERYTHROCYTE COUNT / HEMATOCRIT / HEMOGLOBIN / LEUKOCYTE COUNT / LYMPHOCYTE / MEAN CORPUSCULAR HEMOGLOBIN / MEAN CORPUSCULAR HEMOGLOBIN CONCENTRATION / MEAN CORPUSCULAR VOLUME / MONOCYTE / NEUTROPHIL / NUCLEATED RED BLOOD CELLS / PLATELET COUNT: tissue Blood; for ALANINE AMINOTRANSFERASE / ALBUMIN / ALKALINE PHOSPHATASE / ASPARTATE AMINOTRANSFERASE / BLOOD UREA NITROGEN / CARBON DIOXIDE / CHLORIDE / CHOLESTEROL / CREATINE PHOSPHOKINASE / CREATININE / GLUCOSE / LACTATE DEHYDROGENASE / LIPASE / PHOSPHORUS / POTASSIUM / SODIUM / TOTAL BILIRUBIN / TOTAL PROTEIN / URIC ACID: tissue Plasma
[1] = 25 mg/kg, 72 h, dose level Low, time 3 day
[2] = 25 mg/kg, 120 h, dose level Low, time 5 day
[3] = 1500 mg/kg, 72 h, dose level High, time 3 day
[4] = 1500 mg/kg, 120 h, dose level High, time 5 day

Cc1ccc(S(=O)(=O)NC(=O)NN2CCCCCC2)cc1 [TOLAZAMIDE]
ABSOLUTE BASOPHIL [1]: 0 CELLS/uL | ABSOLUTE EOSINOPHIL [1]: 281.67 CELLS/uL | ABSOLUTE LYMPHOCYTE [1]: 14664 CELLS/uL | ABSOLUTE MONOCYTE [1]: 321 CELLS/uL | ABSOLUTE SEGMENTED NEUTROPHIL [1]: 2033.33 CELLS/uL | BASOPHIL [1]: 0% | EOSINOPHIL [1]: 1.67% | ERYTHROCYTE COUNT [1]: 5.23 x10E6/uL | HEMATOCRIT [1]: 32.97% | HEMOGLOBIN [1]: 12.7 G/DL | LEUKOCYTE COUNT [1]: 17.3 x10E3/uL | LYMPHOCYTE [1]: 85% | MEAN CORPUSCULAR HEMOGLOBIN [1]: 24.27 pg | MEAN CORPUSCULAR HEMOGLOBIN CONCENTRATION [1]: 38.53 G/DL | MEAN CORPUSCULAR VOLUME [1]: 63 fL | MONOCYTE [1]: 2% | NEUTROPHIL [1]: 11.33% | NUCLEATED RED BLOOD CELLS [1]: 0 /100WBC | PLATELET COUNT [1]: 1363.33 x10E3/uL | ALANINE AMINOTRANSFERASE [1]: 47.33 u/L | ALBUMIN [1]: 4.3 G/DL | ALKALINE PHOSPHATASE [1]: 373.67 u/L | ASPARTATE AMINOTRANSFERASE [1]: 73.33 u/L | BLOOD UREA NITROGEN [1]: 13.33 mg/dL | CARBON DIOXIDE [1]: 22 mmol/L | CHLORIDE [1]: 102.33 MEQ/L | CHOLESTEROL [1]: 62.67 mg/dL | CREATINE PHOSPHOKINASE [1]: 209.33 u/L | CREATININE [1]: 0.17 mg/dL | GLUCOSE [1]: 152.33 mg/dL | LACTATE DEHYDROGENASE [1]: 265 u/L | LIPASE [1]: 9 u/L | PHOSPHORUS [1]: 13.13 mg/dL | POTASSIUM [1]: 7.02 MEQ/L | SODIUM [1]: 143.5 MEQ/L | TOTAL BILIRUBIN [1]: 0.17 mg/dL | TOTAL PROTEIN [1]: 5.3 G/DL | URIC ACID [1]: 1.97 mg/dL | ABSOLUTE BASOPHIL [2]: 0 CELLS/uL | ABSOLUTE EOSINOPHIL [2]: 87.33 CELLS/uL | ABSOLUTE LYMPHOCYTE [2]: 13745 CELLS/uL | ABSOLUTE MONOCYTE [2]: 575.67 CELLS/uL | ABSOLUTE SEGMENTED NEUTROPHIL [2]: 1458.67 CELLS/uL | BASOPHIL [2]: 0% | EOSINOPHIL [2]: 0.67% | ERYTHROCYTE COUNT [2]: 6.16 x10E6/uL | HEMATOCRIT [2]: 38.13% | HEMOGLOBIN [2]: 13.9 G/DL | LEUKOCYTE COUNT [2]: 15.87 x10E3/uL | LYMPHOCYTE [2]: 86.67% | MEAN CORPUSCULAR HEMOGLOBIN [2]: 22.6 pg | MEAN CORPUSCULAR HEMOGLOBIN CONCENTRATION [2]: 36.47 G/DL | MEAN CORPUSCULAR VOLUME [2]: 61.93 fL | MONOCYTE [2]: 3.67% | NEUTROPHIL [2]: 9% | NUCLEATED RED BLOOD CELLS [2]: 0 /100WBC | PLATELET COUNT [2]: 1264.67 x10E3/uL | ALANINE AMINOTRANSFERASE [2]: 46.67 u/L | ALBUMIN [2]: 4.3 G/DL | ALKALINE PHOSPHATASE [2]: 296.33 u/L | ASPARTATE AMINOTRANSFERASE [2]: 92.67 u/L | BLOOD UREA NITROGEN [2]: 17.33 mg/dL | CARBON DIOXIDE [2]: 23.67 mmol/L | CHLORIDE [2]: 109.33 MEQ/L | CHOLESTEROL [2]: 61.67 mg/dL | CREATINE PHOSPHOKINASE [2]: 320 u/L | CREATININE [2]: 0.19 mg/dL | GLUCOSE [2]: 152.33 mg/dL | LACTATE DEHYDROGENASE [2]: 425.33 u/L | LIPASE [2]: 9 u/L | PHOSPHORUS [2]: 11.2 mg/dL | POTASSIUM [2]: 5.71 MEQ/L | SODIUM [2]: 148.83 MEQ/L | TOTAL BILIRUBIN [2]: 0.17 mg/dL | TOTAL PROTEIN [2]: 6.13 G/DL | URIC ACID [2]: 1.27 mg/dL | ABSOLUTE BASOPHIL [3]: 0 CELLS/uL | ABSOLUTE EOSINOPHIL [3]: 0 CELLS/uL | ABSOLUTE LYMPHOCYTE [3]: 13270.33 CELLS/uL | ABSOLUTE MONOCYTE [3]: 328.33 CELLS/uL | ABSOLUTE SEGMENTED NEUTROPHIL [3]: 801.33 CELLS/uL | BASOPHIL [3]: 0% | EOSINOPHIL [3]: 0% | ERYTHROCYTE COUNT [3]: 5.57 x10E6/uL | HEMATOCRIT [3]: 35.93% | HEMOGLOBIN [3]: 13.3 G/DL | LEUKOCYTE COUNT [3]: 14.4 x10E3/uL | LYMPHOCYTE [3]: 92% | MEAN CORPUSCULAR HEMOGLOBIN [3]: 23.9 pg | MEAN CORPUSCULAR HEMOGLOBIN CONCENTRATION [3]: 37.03 G/DL | MEAN CORPUSCULAR VOLUME [3]: 64.5 fL | MONOCYTE [3]: 2.33% | NEUTROPHIL [3]: 5.67% | NUCLEATED RED BLOOD CELLS [3]: 0 /100WBC | PLATELET COUNT [3]: 1235.33 x10E3/uL | ALANINE AMINOTRANSFERASE [3]: 26.33 u/L | ALBUMIN [3]: 4.3 G/DL | ALKALINE PHOSPHATASE [3]: 233.33 u/L | ASPARTATE AMINOTRANSFERASE [3]: 69 u/L | BLOOD UREA NITROGEN [3]: 17.67 mg/dL | CARBON DIOXIDE [3]: 25 mmol/L | CHLORIDE [3]: 106.33 MEQ/L | CHOLESTEROL [3]: 46.67 mg/dL | CREATINE PHOSPHOKINASE [3]: 172 u/L | CREATININE [3]: 0.18 mg/dL | GLUCOSE [3]: 142 mg/dL | LACTATE DEHYDROGENASE [3]: 80.67 u/L | LIPASE [3]: 8 u/L | PHOSPHORUS [3]: 9.5 mg/dL | POTASSIUM [3]: 5.38 MEQ/L | SODIUM [3]: 145.4 MEQ/L | TOTAL BILIRUBIN [3]: 0.27 mg/dL | TOTAL PROTEIN [3]: 5.8 G/DL | URIC ACID [3]: 1.07 mg/dL | ABSOLUTE BASOPHIL [4]: 0 CELLS/uL | ABSOLUTE EOSINOPHIL [4]: 47.67 CELLS/uL | ABSOLUTE LYMPHOCYTE [4]: 13177.33 CELLS/uL | ABSOLUTE MONOCYTE [4]: 515.33 CELLS/uL | ABSOLUTE SEGMENTED NEUTROPHIL [4]: 1493 CELLS/uL | BASOPHIL [4]: 0% | EOSINOPHIL [4]: 0.33% | ERYTHROCYTE COUNT [4]: 6.17 x10E6/uL | HEMATOCRIT [4]: 38.2% | HEMOGLOBIN [4]: 14.3 G/DL | LEUKOCYTE COUNT [4]: 15.23 x10E3/uL | LYMPHOCYTE [4]: 86.67% | MEAN CORPUSCULAR HEMOGLOBIN [4]: 23.2 pg | MEAN CORPUSCULAR HEMOGLOBIN CONCENTRATION [4]: 37.47 G/DL | MEAN CORPUSCULAR VOLUME [4]: 61.93 fL | MONOCYTE [4]: 3.33% | NEUTROPHIL [4]: 9.67% | NUCLEATED RED BLOOD CELLS [4]: 0 /100WBC | PLATELET COUNT [4]: 1206.33 x10E3/uL | ALANINE AMINOTRANSFERASE [4]: 28 u/L | ALBUMIN [4]: 4.7 G/DL | ALKALINE PHOSPHATASE [4]: 319.67 u/L | ASPARTATE AMINOTRANSFERASE [4]: 70.67 u/L | BLOOD UREA NITROGEN [4]: 19 mg/dL | CARBON DIOXIDE [4]: 25.33 mmol/L | CHLORIDE [4]: 105.33 MEQ/L | CHOLESTEROL [4]: 58.33 mg/dL | CREATINE PHOSPHOKINASE [4]: 168.67 u/L | CREATININE [4]: 0.2 mg/dL | GLUCOSE [4]: 138.67 mg/dL | LACTATE DEHYDROGENASE [4]: 114 u/L | LIPASE [4]: 9.33 u/L | PHOSPHORUS [4]: 13.07 mg/dL | POTASSIUM [4]: 6.1 MEQ/L | SODIUM [4]: 149.93 MEQ/L | TOTAL BILIRUBIN [4]: 0.2 mg/dL | TOTAL PROTEIN [4]: 6.57 G/DL | URIC ACID [4]: 2.17 mg/dL
